Measurements taken from patent publication US20120083522A1, “MODULATION OF INFLAMMATORY RESPONSES BY FACTOR XI” (Isis Pharmaceuitcals, inc., priority 2009, published 2012).
In the oligonucleotide strings, read from the 5' end, every base follows the letter of its sugar. An asterisk marks phosphorothioate; unmarked linkages are phosphodiester. Other units and linkages are bracketed, terminal groups are in braces. A string of capitals states the bases alone. e = 2'-O-(2-methoxyethyl) (MOE); [5mC] = 5-methylcytosine; d = 2'-deoxy (DNA)

Experiments:
[1] = test system: IL-1, IL-6, IL-10, IL-12, IL-17, TNF-α, GATA-3; assay: Colitis Study F: cytokine and GATA-3 mRNA levels in colon; type: in vivo, Swiss Webb mice; settings: day 7
Method: (§1) In a first group of 8 Swiss Webb mice, 50 mg/kg of ISIS 404071 was injected subcutaneously twice a week for 3 weeks. Two control groups of 8 mice each were injected with PBS twice a week for 3 weeks. After the oligonucleotide treatment, 4% DSS in water was administered ad libitum for 7 days to the experimental group and one PBS control group. Mice were sacrificed at the end of the study on day 7 after DSS was administered.
The mRNA levels of cytokines IL-1, IL-6, IL-10, IL-12, IL-17 and TNF-α were measured in the colon of the mice groups at the end of the study on day 7 after DSS was administered. Colons were homogenized on ice in PBS supplemented with protease inhibitors (Sigma, St. Louis, Mo.) and extracted with rotation at 4° C. for 1 hour. After removal of insoluble material by centrifugation, colon homogenates were used for the cytokine analysis by multiplex ELISA (Meso Scale Discovery, Gaithersburg, Md.) according to the manufacture's protocol. Cytokine levels in colon extracts were normalized to the protein concentration measured by protein assay kit (BioRad, Hercules, Calif.). The levels of pro-inflammatory cytokines, including Th1 cytokines IL-1 and IL-6, elevated by DSS administration were decreased by treatment with ISIS 404071.

[2] = test system: DSS-induced colitis model; assay: Colitis Study F: body weight, stool scores, colon length and weight; type: in vivo, Swiss Webb mice; settings: DSS-treated mice, 50 mg/kg, Day 8
[3] = Arthritis Study B: liver and spleen weight, ALT, AST; type: in vivo; settings: collagen-treated DBA/1J mice, 20 mg/kg s.c. twice a week for ten weeks
Method: In a group of 20 DBA/1J mice, 20 mg/kg of ISIS 404071 were injected subcutaneously twice a week for ten weeks. In a second group of 20 DBA/1J mice, 20 mg/kg of ISIS 404057 were injected subcutaneously twice a week for ten weeks. In a third control group of 20 DBA/1J mice, 20 mg/kg of ISIS 421208 were injected subcutaneously twice a week for ten weeks. Two control groups of 20 mice each were injected with PBS twice a week for ten weeks.
Mice in all groups were examined daily after day 30 after the first collagen injection for the visual appearance of arthritis in peripheral joints. The results in Table 22 are expressed as percent change compared to the PBS control except for the liver and spleen weight.

[4] = test system: soluble CD40 ligand (CD40L); assay: Colitis Study D: CD40L levels; type: in vivo, Swiss Webb mice; settings: for CD40L levels in colon: DSS-treated mice
Method: (§2) In a first group of 8 Swiss Webb mice, 10 mg/kg of ISIS 404071 was injected subcutaneously twice a week for 3 weeks. In a second group of 8 Swiss Webb mice, 20 mg/kg of ISIS 404057 was subcutaneously injected twice a week for 3 weeks. In a third control group of 8 Swiss Webb mice, 40 mg/kg of ISISI 404057 was injected subcutaneously twice a week for 3 weeks. Two control groups of 8 mice each were injected with PBS twice a week for 3 weeks. After the oligonucleotide treatment, 4% DSS in water was administered ad libitum for 7 days to all the experimental groups and one PBS control group.
Plasma levels of soluble CD40 ligand (CD40L) are known to be elevated in cases of inflammatory bowel disease (Ludwiczek, O. et al., Int. J. Colorectal Disease. 2003. 18: 142-147) and may be considered a marker of intestinal inflammation. […]

[5] = Colitis Study F: plasma ALT, AST, BUN, CREAT, CHOL, TBIL; type: in vivo, Swiss Webb mice; settings: DSS-treated mice, 50 mg/kg s.c. twice a week for 3 weeks
Method: as §1
Plasma levels of aminotransferases (ALT and AST), blood urea nitrogen (BUN), creatinine (CREAT), cholesterol (CHOL) and total bilirubin (TBIL) were measured after treatment and are shown in Table 47.

[6] = test system: bradykinin; assay: Colitis Study D: bradykinin levels in colon; type: in vivo, Swiss Webb mice; settings: for Bradykinin levels in colon: DSS-treated mice
Method: as §2
The effect of antisense inhibition of Factor XI on kinin levels in the colon was evaluated (Phoenix Pharmaceuticals, Burlingame, Calif.) and the results are presented in Table 32.

[7] = test system: DSS-induced colitis model; assay: Colitis Study C: stool softness/diarrhea; type: in vivo, mice; settings: after seven days
Method: A third study on colitis using Factor XI oligonucleotide (ISIS 404071, SEQ ID NO: 11) was conducted. The study was performed essentially as described earlier in this example. A stool softness/diarrhea study was conducted.

[8] = test system: thrombin-antithrombin (TAT) complexes; assay: Colitis Study D: TAT levels in colon; type: in vivo, Swiss Webb mice; settings: for TAT levels in colon: DSS-treated mice
Method: as §2
Mice with dextran sodium sulfate (DSS)-induced colitis have elevated level of thrombin-antithrombin (TAT) complexes in blood (Anthoni, C. et al., J. Exp. Med. 204: 1595-1601, 2007) that is also observed in patients with ulcerative colitis (Kume, K. et al., Intern Med. 2007. 46: 1323-9). The effect of antisense inhibition of Factor XI on TAT levels in the colon was evaluated (Thrombi-Anti-Thrombin III complex, Siemens Healthcare Diagnostics, Deerfield, Ill.) and the results are presented in Table 30.

TGGTAATCCACTTTCAGAGG (eT*eG*eG*eT*eA*dA*dT*d[5mC]*d[5mC]*dA*d[5mC]*dT*dT*dT*d[5mC]*eA*eG*eA*eG*eG) [ISIS 404071, 5-10-5 MOE gapmer targeting murine Factor XI, target start site 869]
pro-inflammatory cytokines incl. IL-1 and IL-6 in colon (in words) ([1]; Colitis Study F): decreased | GATA-3 mRNA level in the colon ([1]; DSS-treated mice, 50 mg/kg): 359 % of PBS treated animals | IL-1 mRNA level in the colon ([1]; DSS-treated mice, 50 mg/kg): 1189 % of PBS treated animals | IL-6 mRNA level in the colon ([1]; DSS-treated mice, 50 mg/kg): 1056 % of PBS treated animals | IL-10 mRNA level in the colon ([1]; DSS-treated mice, 50 mg/kg): 202 % of PBS treated animals | IL-12 mRNA level in the colon ([1]; DSS-treated mice, 50 mg/kg): 234 % of PBS treated animals | IL-17 mRNA level in the colon ([1]; DSS-treated mice, 50 mg/kg): 787 % of PBS treated animals | TNF-α mRNA level in the colon ([1]; DSS-treated mice, 50 mg/kg): 1127 % of PBS treated animals | Stool score [2]: 2 | Liver ALT [3]: 56.6 | Liver AST [3]: 86.75 | Liver Weight as a % of Body Weight [3]: 6.089% | Spleen Weight as a % of Body Weight [3]: 0.759 % of Body Weight | CD40L levels (in words) ([4]; Colitis Study D): decreased | CD40L levels in colon ([4]; 10 mpk): 0.19 ng/mg protein | CD40L levels in colon ([4]; 20 mpk): 0.26 ng/mg protein | CD40L levels in colon ([4]; 40 mpk): 0.39 ng/mg protein | Plasma ALT [5]: 133.6 U/L | Plasma AST [5]: 339.3 U/L | Plasma BUN [5]: 29.5 mg/dL | Plasma CHOL [5]: 170.3 mg/dL | Plasma TBIL [5]: 0.7 mg/dL | bradykinin levels (in words) ([6]; Colitis Study D): decreased | Bradykinin levels in colon ([6]; 10 mpk): 0.03 ng/mg protein | Bradykinin levels in colon ([6]; 20 mpk): 0.00 ng/mg protein | Bradykinin levels in colon ([6]; 40 mpk): 0.02 ng/mg protein | stool softness/diarrhea (in words) [7]: normal to soft stool but no diarrhea | TAT levels in the colon (in words) ([8]; Colitis Study D): decreased in a dose-dependent manner | TAT levels in colon ([8]; 10 mpk): 1.79 ng/mg protein | TAT levels in colon ([8]; 20 mpk): 0.65 ng/mg protein | TAT levels in colon ([8]; 40 mpk): 0.75 ng/mg protein
